Reference: patent US6436416B1, “Cosmetic skin conditioning compositions containing high performing retinyl esters” (Unilever Home & Personal Care USA, division of Conopco, Inc., priority 2000, dated 2002)

What was measured:
Procollagen I = Procollagen I assay; assay type: cell-based, human; conditions: fibroblasts, control at 100%
Source text: Collagen is a predominant skin protein. Its synthesis decreases with aging or photodamage. The degradation or destruction of collagen […] the tensile strength of the skin causing wrinkles and laxity. Many studies involving human subjects have shown that collagen type I is decreased with increasing severity of photodamage (See Kligman, A., JAMA, (1969), 210, pp. 2377-2380; Lavker, R., J. Inv Derm., (1979), 73, 79-66; Smith J. et al., J. lnv. Derm., (1962), 39, pp. 347-350; and Shuster, S. et al., Br. J. Dermatol., (1975), 93, pp. 639-643); and some correlation in the histology of wrinkles and reduction in collagen levels in the sun-exposed skin has been reported. See Chen, S.; Kiss, I., J. Inv. Derm., (1992), 98. pp. 248-254. Voorhees and colleagues have supported these findings by showing the restoration of collagen type I in photo-damaged human skin by a topical treatment with tretinoin. See Christopher, E., et al., The New Eng. Jou. of Medicine (1993), 329, pp. 530-535. Procollagen I is a precursor of collagen. Increased production of procollagen I in response to a test compound application is a marker of an increased collagen level.
Seed passage 3 (P3) fibroblasts in 6-well tissue culture treated dishes at a density of ˜10,000 cells/well.
Culture cells until ˜70% confluent in high glucose Dulbecco's Modified Eagles Medium (DMEM).
When cells are ˜70% confluent, replace with fresh medium, dose with actives and continue culturing until cells are 100% confluent.
Remove media and store at 4° C.
Dilute 20 μl conditioned (treated) media in 200 μl unconditioned DMEM.
Soak nitrocellulose membrane and 3 sheets of filter paper in 1×TBS (tris buffered saline, pH=7.3).
Set up Bio-Rad slot blot apparatus with filter paper on bottom, nitrocellulose membrane on top. Add 100 μl TBS/well. Vacuum dry.
Remove membrane from apparatus and place in blocking solution (5% milk powder in phosphate buffered saline (PBS)) for 1 hr at room temperature or overnight at 4° C.
Primary antibody-Remove membrane from blocking solution and incubate for 1.5 hours at room temperature or overnight at 4° C. with 1.5 ml rat anti-human procollagen amino-terminal antibody (Chemicon MAB1912) 1:100 in TBS with 0.1% bovine serum albumin (BSA).
Remove membrane, was 3×(10 minutes/wash) in TBS/0.1% tween 20.
Secondary antibody-incubate for 1 hour at room temperature or overnight at 4° C. in 2 ml 1:1000 biotinylated anti-rat peroxidase conjugated antibody (Vector Labs).
Remove membrane from secondary antibody and was 3×(10 minutes/wash) in TBS/0.1% tween 20.
Preincubate 3 ml PBS with 30 μl each of solutions A and B from Vectastain kit for 30 minutes. […]
Scan using a laser densitometer and quantified as % over control (with control at 100%).

[1] = tested on: CRABP-2 expression of pig skin epidermis; experiment: CRABP-2 assay; assay type: cell-based; conditions: topical dose 5 μl in ethanol vehicle, four days, control as 100%
Source text: Within the cells, retinol and retinoic acid are bound to specific cellular binding proteins. Two of the major proteins are CRABP-1 and CRABP-2 (Roos et al., Pharmacological reviews: 50, 315-333, 1998). These proteins regulate the intracellular concentration of retinoids by acting as either storage or shuttle proteins in retinoid metabolism. The levels of CRABP protein are regulated by the amount of retinoic acid within the cells. Higher cellular levels of retinoids increase the expression of CRABP-2. Therefore, the amount of this protein in the cells is a measure of the retinoid activity of the cells. Skin cells contain high levels of CRABP-2 both in the epidermis and the dermis. CRABP-2 response to retinoid administration in is used as a reproducible measure of retinoid bioactivity that predict human skin responses (Elder et al., J. Invest. Dermatol., 106: 517-521, 1996). Increase in CRABP-2 is also associated with increased epidermal differentiation, and dermal retinoid action. Therefore, in these studies we used CRABP-2 expression of pig skin epidermis as a measure of retinoid activity leading to increased epidermal differentiation (skin conditioning and dry skin benefit) and dermal collagen and extracellular matrix synthesis (antiaging, anti wrinkling benefits).
Pig skin was received, scrubbed with Vionex detergent, and dermatomed at a thickness of 0.058 cm and allowed to wash in preliminary medium on a shaker for an hour with three solution changes.
7 mm punches were taken and allowed to sit in final medium overnight. The next day, the medium was refreshed with final medium 1 mL per well. One day later, the plates received fresh final medium,and topically dosed with 5 μl of the active(s) in an ethanol vehicle.
After four days, the biopsies will be removed from the plates, washed with PBS in a concial tube, and frozen at −80° C. for future use.
After thawing, the epidermis was separated and boiled in urea and sample buffer, after which protein quantitation was possible.
16% 15 lane acrylamide gels were loaded ewith the appropriate samples and run until all the proteins were separated based upon their molecular weight.
The gels were transferred onto PVDF membranes at 25 constant Volts for 2.5 hours.
The membranes were blocked with 5% milk in TBST (Tween 0.05%) for one hour at room temperature.
Primary Ab exposure 1:1,000 in 1% milk TBS soln for one hour, followed by six washes with TBST over a period of one hour. […]
The bands in the film were quantified by densitometric scanning, the data from triplicate samples were calculated as % of control and expressed in the following tables as % increase over control (with control as 100%).

With `CCCCC/C=C/CCCCCCCCCCC(=O)OC/C=C(C)/C=C/C=C(C)/C=C/C1=C(C)CCCC1(C)C` [Retinyl cis-12-Octadecenoate, Retinyl-cis12-Octadecenoate] the “% over control” value (Procollagen I; Experiment 2, concentration 10^−6 M, p < 0.05) was 28 % over control and the “% over control” value ([1]; concentration 10^−4 M) was 993 % over control.

`CCCCC/C=C/C/C=C/C/C=C/CCCCC(=O)OC/C=C(C)/C=C/C=C(C)/C=C/C1=C(C)CCCC1(C)C` [Gamma-retinyl linolenate, Retinyl-cis-6,9,12-Octadecatrienoate] was tested, and the “% over control” value (Procollagen I; Experiment 1, concentration 10^−5 M, p < 0.05) was 225 % over control and the “% over control” value ([1]; concentration 10^−4 M) was 882 % over control.

With `CCCCCCCCCCCCCCCC(=O)OC/C=C(C)/C=C/C=C(C)/C=C/C1=C(C)CCCC1(C)C` [Retinyl Palmitate, reference compound] the “% over control” value (Procollagen I; Experiment 3, concentration 10^−7 M, not significant) was 24 % over control and the “% over control” value ([1]; concentration 10^−3 M) was 444 % over control.

In the case of `CCCCCCCCCCC/C=C/CCCCC(=O)OC/C=C(C)/C=C/C=C(C)/C=C/C1=C(C)CCCC1(C)C` [Retinyl petroselinate, Retinyl Petroselinate], the “% over control” value (Procollagen I; Experiment 1, concentration 10^−6 M, p < 0.05) was 110 % over control and the “% over control” value ([1]; concentration 10^−3 M) was 522 % over control.
